Laboratory results from patent publication US20190062305A1, “PYRIDYL OR PYRAZINYL COMPOUNDS CARRYING A METHYL-BOUND ALPHA-AMINO ACID AMIDE GROUP” (ABBVIE DEUTSCHLAND GMBH & CO. KG, priority 2015, published 2019).
Structures can show the parent of a compound that is named as a salt.

Target: T1, 5-HT2C receptor (Homo sapiens, UniProt P28335)
T1 construct: host or cells: U2OS
Experiment: Human 5-HT2C functional assay (beta-arrestin2 recruitment, U2OS_HTR2C_β-Arrestin cells)
Assay type: cell-based
Settings: for EC50: beta-arrestin2 recruitment, U2OS_HTR2C_β-Arrestin cells, 1.5 h incubation, read-out: EC50 5-HT2C (potency in functional assay); for Emax: relative efficacy vs response to 10 μM 5-HT or maximal 5-HT effect (100%)
Protocol: The functional activity of compounds of formula I was assayed by incubation with U2OS_HTR2C_β-Arrestin cells (DiscoverX, 93-0289C3) to induce beta-arrestin2 recruitment to the 5-HT2C receptor. The agonist-induced recruitment and proximity of the receptor and beta-arrestin2 leads to complementation and formation of active β-galactosidase. The enzyme complementation results in enzyme activity, which is measured following the termination of the agonist incubation using DiscoveRx's detection reagent, which contains a chemiluminescent substrate which produces a high intensity signal. Cells were plated and a medium-change to a 1% serum containing medium was performed 24h later. The next day, test compounds were added and incubated for 1.5 h before addition of detection reagent.
The response produced was measured and compared with the response produced by 10 [mu]M 5-HT or the maximal effect induced by 5-HT (defined as 100%) to which it was expressed as a percentage response (relative efficacy). Dose response curves were constructed using Graphpad Prism (Graph Software Inc.) or using in house adapted software using a 4 parameter dose response model with variable slope (fit=(Bottom+(Top-Bottom)/(1+10^∧((Log EC50−x)*HillSlope))res=(y-fit)). Results are compiled in the table below.

T1 sequence (P28335 33-458): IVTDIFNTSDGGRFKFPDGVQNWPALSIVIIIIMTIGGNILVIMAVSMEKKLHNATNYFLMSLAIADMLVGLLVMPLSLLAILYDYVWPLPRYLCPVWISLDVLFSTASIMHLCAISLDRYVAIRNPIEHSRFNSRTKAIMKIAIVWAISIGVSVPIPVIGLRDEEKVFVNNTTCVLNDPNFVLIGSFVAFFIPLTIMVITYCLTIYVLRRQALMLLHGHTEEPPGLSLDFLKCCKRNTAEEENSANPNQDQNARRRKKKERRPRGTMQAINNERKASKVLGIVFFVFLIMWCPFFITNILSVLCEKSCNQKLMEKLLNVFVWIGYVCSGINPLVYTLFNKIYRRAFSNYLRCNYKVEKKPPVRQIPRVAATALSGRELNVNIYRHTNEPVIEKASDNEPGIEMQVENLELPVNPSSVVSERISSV
T1 sequence (P32121 whole entry partner): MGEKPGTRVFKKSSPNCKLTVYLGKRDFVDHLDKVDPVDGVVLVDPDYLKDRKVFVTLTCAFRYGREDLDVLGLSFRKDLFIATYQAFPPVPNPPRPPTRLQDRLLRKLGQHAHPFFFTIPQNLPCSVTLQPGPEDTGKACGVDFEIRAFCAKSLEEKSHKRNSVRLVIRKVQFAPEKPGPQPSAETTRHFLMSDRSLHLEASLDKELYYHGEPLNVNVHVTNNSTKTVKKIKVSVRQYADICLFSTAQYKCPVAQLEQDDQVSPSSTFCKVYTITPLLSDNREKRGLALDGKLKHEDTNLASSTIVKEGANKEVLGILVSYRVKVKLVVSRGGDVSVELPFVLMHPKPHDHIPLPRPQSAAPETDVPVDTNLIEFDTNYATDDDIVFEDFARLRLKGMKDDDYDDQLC

Row | SMILES | EC50 [nM] | Emax [%]
1 | COc1nc(O[C@H]2C[C@@H](C(F)(F)F)C2)c(F)cc1CN(C)C(=O)[C@@H]1CCCN1 [Example 121, (2S)—N-[[5-Fluoro-2-methoxy-6-[cis-3-(trifluoromethyl)cyclobutoxy]-3-pyridyl]methyl]-N-methyl-pyrrolidine-2-carboxamide Hydrochloride] | < 20 | 50 to 70
2 | COc1nc(OC2CCC(OC(F)F)CC2)c(F)cc1CNC(=O)[C@@H]1CCCN1 (stereo partly drawn) [Example 67, (2S)—N-[[6-[4-(Difluoromethoxy)cyclohexoxy]-5-fluoro-2-methoxy-3-pyridyl]-methyl]pyrrolidine-2-carboxamide] | < 20 | > 70
3 | COc1nc(OC2CCC(F)(F)CC2)c(F)cc1CNC(=O)[C@@H]1C=CCN1C [Example 21, (2S)—N-[[6-(4,4-Difluorocyclohexoxy)-5-fluoro-2-methoxy-3-pyridyl]methyl]-1-methyl-2,5-dihydropyrrole-2-carboxamide] | 20 to 200 | > 70
4 | COc1nc(OC2CCCCC2C(F)(F)F)c(F)cc1CNC(=O)[C@@H]1CCCN1 (stereo partly drawn) [Example 57, (2S)—N-[[5-Fluoro-2-methoxy-6-[2-(trifluoromethyl)cyclohexoxy]-3-pyridyl]methyl]pyrrolidine-2-carboxamide; 2,2,2-trifluoroacetic Acid] | < 20 | > 70
5 | COc1nc(N2C[C@@H]3CC(F)(F)C[C@@H]3C2)c(F)cc1CNC(=O)[C@@H]1CCCN1 [Example 181, (2S)—N-[[6-[(3aR,6aS)-5,5-Difluoro-1,3,3a,4,6,6a-hexahydrocyclopenta[c]pyrrol-2-yl]-5-fluoro-2-methoxy-3-pyridyl]methyl]pyrrolidine-2-carboxamide; 2,2,2-trifluoroacetic Acid] | < 20 | 
6 | COc1nc(OC2CCC(C(F)(F)F)CC2)c(F)cc1CNC(=O)[C@H]1NC[C@@H]2C[C@@H]21 (stereo partly drawn) [Example 85, (1R,4S,5S)—N-[[5-Fluoro-2-methoxy-6-[4-(trifluoromethyl)cyclohexoxy]-3-pyridyl]methyl]-3-azabicyclo[3.1.0]hexane-4-carboxamide Hydrochloride] | < 20 | 30 to 50
7 | COc1nc(OCC23CC4CC(CC(C4)C2)C3)c(F)cc1CNC(=O)[C@@H]1CCCN1 [Example 70, (2S)—N-[[6-(1-Adamantylmethoxy)-5-fluoro-2-methoxy-3-pyridyl]methyl]-pyrrolidine-2-carboxamide; 2,2,2-trifluoroacetic Acid] | < 20 | > 70
8 | COc1nc(OCC23CC(C2)C3)c(F)cc1CNC(=O)[C@@H]1CCCN1 [Example 22, (S)—N-((6-(Bicyclo[1.1.1]pentan-1-ylmethoxy)-5-fluoro-2-methoxypyridin-3-yl)methyl)pyrrolidine-2-carboxamide Hydrochloride] | < 20 | > 70
9 | COc1nc(CC2CCCCC2)c(F)cc1CNC(=O)[C@@H]1CCCN1 [Example 129, (2S)—N-[[6-(Cyclohexylmethyl)-5-fluoro-2-methoxy-3-pyridyl]methyl]pyrrolidine-2-carboxamide] | < 20 | > 70
10 | COc1nc(OCc2ccc(F)cc2)c(F)cc1CN(C)C(=O)[C@@H]1CCCN1 [Example 124, (2S)—N-[[5-Fluoro-6-[(4-fluorophenyl)methoxy]-2-methoxy-3-pyridyl]methyl]-N-methyl-pyrrolidine-2-carboxamide Hydrochloride] | 20 to 200 | 50 to 70
11 | COc1nc(NCC2CCC(C(F)(F)F)CC2)c(F)cc1CNC(=O)[C@@H]1CCCN1 (single isomer, unassigned) [Example 149] | 20 to 200 | 
12 | COc1nc(OCc2cc(F)cc(F)c2)c(F)cc1CN(C)C(=O)[C@@H]1CCCN1 [Example 122, (2S)—N-[[6-[(3,5-Difluorophenyl)methoxy]-5-fluoro-2-methoxy-3-pyridyl]methyl]-N-methyl-pyrrolidine-2-carboxamide Hydrochloride] | < 20 | > 70
13 | COc1nc(OCC2CC2(F)F)c(F)cc1CNC(=O)[C@@H]1CCCN1 (stereo partly drawn) [Example 41, (2S)—N-[[6-[(2,2-Difluorocyclopropyl)methoxy]-5-fluoro-2-methoxy-3-pyridyl]methyl]pyrrolidine-2-carboxamide; Succinic Acid] | < 20 | > 70
14 | COc1nc(OC[C@@H]2CCC(F)(F)C2)c(F)cc1CNC(=O)[C@@H]1CCCN1C [Example 16, (2S)—N-[[6-[[(1R)-3,3-Difluorocyclopentyl]methoxy]-5-fluoro-2-methoxy-3-pyridyl]methyl]-1-methyl-pyrrolidine-2-carboxamide] | < 20 | > 70
15 | COc1nc(O[C@H]2CC[C@H](C(F)(F)F)CC2)c(F)cc1CNC(=O)[C@H]1NC[C@@H]1C [Example 80, (2S,3 S)—N-[[5-Fluoro-2-methoxy-6-[4-(trifluoromethyl)cyclohexoxy]-3-pyridyl]methyl]-3-methyl-azetidine-2-carboxamide; Fumaric Acid] | 20 to 200 | > 70
16 | COc1nc(C(F)(F)C(Cl)c2ccccc2)c(F)cc1CN(C)C(=O)C1CCCN1 (stereo not drawn) [Example 192, N-[[6-(2-Chloro-1,1-difluoro-2-phenyl-ethyl)-5-fluoro-2-methoxy-3-pyridyl]-methyl]-N-methyl-pyrrolidine-2-carboxamide Dihydrochloride] | 200 to 1000 | 50 to 70
17 | COc1nc(OCCC(F)(F)C(F)(F)F)c(F)cc1CNC(=O)[C@@H]1CCCN1 [Example 45, (2S)—N-[[5-Fluoro-2-methoxy-6-(3,3,4,4,4-pentafluorobutoxy)-3-pyridyl]methyl]-pyrrolidine-2-carboxamide; Succinic Acid] | < 20 | > 70
18 | COc1nc(OCC(F)(C(F)(F)F)C(F)(F)F)c(F)cc1CNC(=O)[C@@H]1CCCN1 [Example 69, (S)—N-((5-Fluoro-2-methoxy-6-(2,3,3,3-tetrafluoro-2-(trifluoromethyl)propoxy)pyridin-3-yl)methyl)pyrrolidine-2-carboxamide Hydrochloride] | < 20 | > 70
19 | COc1nc(OC2CCC(F)(F)CC2)c(F)cc1CNC(=O)[C@@H]1CCN1C [Example 39, (2S)—N-[[6-(4,4-Difluorocyclohexoxy)-5-fluoro-2-methoxy-3-pyridyl]methyl]-1-methyl-azetidine-2-carboxamide; Succinic Acid] | 20 to 200 | 50 to 70
20 | COc1nc(O[C@H]2C[C@H](C(F)(F)F)C2)c(F)cc1CN(C)C(=O)[C@@H]1CCCN1 [Example 120, (2S)—N-[[5-Fluoro-2-methoxy-6-[trans-3-(trifluoromethyl)cyclobutoxy]-3-pyridyl]-methyl]-N-methyl-pyrrolidine-2-carboxamide Hydrochloride] | < 20 | 50 to 70
21 | COc1nc(OC(C)C(F)(F)C(F)(F)F)c(F)cc1CNC(=O)[C@@H]1CCCN1 (stereo partly drawn) [Example 50, (2S)—N-[[5-Fluoro-2-methoxy-6-(2,2,3,3,3-pentafluoro-1-methyl-propoxy)-3-pyridyl]methyl]pyrrolidine-2-carboxamide; Succinic Acid] | < 20 | > 70
22 | COc1nc(N2CCCC2)c(F)cc1CNC(=O)[C@@H]1CCCN1 [Example 135, (2S)—N-[(5-Fluoro-2-methoxy-6-pyrrolidin-1-yl-3-pyridyl)methyl]pyrrolidine-2-carboxamide; 2,2,2-trifluoroacetic Acid] | 20 to 200 | > 70
